Data reported in patent US4372970A, “Benzofuran acetic acid esters and their arthropocidal compositions” (Shell Internationale Research Maatschappij B.V., priority 1979, dated 1983).

Experiments:
insects = details: about times that of natural pyrethrum; cited from earlier work
[1] = test system: lettuce, cucumber, dwarf French beans, tomato or broad bean; assay: Phytotoxicity on foliage; type: in vivo; details: 100 p.p.m. on foliage
Source text: Phytotoxicity is an important feature when the insecticide is applied to foliage.

## CC(C)=CC1C(C(=O)OCc2coc(Cc3ccccc3)c2)C1(C)C (centres unmarked) [Resmethrin, 5-benzyl-3-furylmethylchrysanthemumate]
insects
  activity relative to natural pyrethrum: about 20 times

## CC(C)C(C(=O)OC(C#N)c1cccc(Oc2ccccc2)c1)c1ccc(Cl)cc1 (stereo not drawn) [fenvalerate, α-cyano-3-phenoxy-benzyl 2-(4-chlorophenyl)-3-methylbutyrate]
[1]
  phytotoxicity: phytotoxicity was observed
